Data reported in patent EP0774460A1, “BENZOIC ACID COMPOUND AND USE THEREOF AS MEDICINE” (YOSHITOMI PHARMACEUTICAL INDUSTRIES, LTD., priority 1994, dated 1995).

Key:
5-HT4 receptor = target: T1, 5-HT4 receptor (Cavia porcellus, UniProt O70528); assay: 5-HT4 receptor binding test; set-up: species or system guinea pig; conditions: [3H]GR113808 0.1 nM, crude synapse membrane from guinea pig striatum, 37°C; read-out: Affinity for receptor (Ki value, nM) 5-HT4
T1 construct: crude synapse membrane sample was prepared from guinea pig striatum; from tissue; host or cells: guinea pig striatum, crude synaptic membranes
Protocol: Experimental Example 1 : 5-HT4 receptor binding test
According to the method of C.J. Grossman et al. (British Journal of Pharmacology, vol. 109, pp. 618-624), a specific 5-HT4 receptor binding test was run using, as a tracer ligand, 1-methyl-1H-indole-3-carboxylic acid · 1-(2-methylsulfonylaminoethyl)-piperidin-4-ylmethyl ester substituted by tritium (hereinafter to be referred to as [3H]GR113808). Specifically, crude synapse membrane sample was prepared from guinea pig striatum, suspended in 50 mM HEPES buffer (pH 7.4) and used for testing. The test compound having several different concentrations and [3H]GR113808 (final concentration 0.1 nM) were added to this suspension and allowed to react at 37°C. Thirty minutes later, the reaction mixture was filtered by suction with cell harvester. The filter was washed with 50 mM HEPES buffer, and the radioactivity on the filter was counted by liquid scintillation counter. The non-specific binding was determined in the presence of 1 µM GR113808. The concentration of the test compound necessary for 50% inhibition (IC50) and Ki value were determined from graph.

5-HT3 receptor = target: T2, 5-HT3 receptor (Rattus norvegicus, UniProt P35563); assay: 5-HT3 receptor binding test; conditions: [3H]Granisetron 1.0 nM, crude synapse membrane from rat cerebral cortex, 25°C; cells marked * are IC50; read-out: Affinity for receptor 5-HT3 (∗ shows IC50)
T2 construct: crude synapse membrane sample was prepared from rat cerebral cortex; from tissue; host or cells: rat cerebral cortex, crude synaptic membranes
T2 sequence (P35563 24-483): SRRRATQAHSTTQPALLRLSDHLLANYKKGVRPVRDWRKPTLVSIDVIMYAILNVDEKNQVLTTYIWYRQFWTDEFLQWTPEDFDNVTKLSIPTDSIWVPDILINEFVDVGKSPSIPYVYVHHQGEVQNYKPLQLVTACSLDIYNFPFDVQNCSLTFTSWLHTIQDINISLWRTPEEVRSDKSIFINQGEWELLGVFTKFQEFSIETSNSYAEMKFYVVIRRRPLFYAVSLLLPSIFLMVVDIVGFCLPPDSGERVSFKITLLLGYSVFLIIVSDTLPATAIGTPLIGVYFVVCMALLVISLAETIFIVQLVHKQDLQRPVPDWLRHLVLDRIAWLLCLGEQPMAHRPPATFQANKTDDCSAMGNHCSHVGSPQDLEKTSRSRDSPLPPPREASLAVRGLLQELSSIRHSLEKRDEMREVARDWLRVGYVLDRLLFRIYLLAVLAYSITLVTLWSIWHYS
Protocol: Experimental Example 2 : 5-HT3 receptor binding test
According to the method of Peroutka et al (European Journal of Pharmacology, vol. 148, pp. 297-299), a specific 5-HT3 receptor binding test was run using, as a tracer ligand, endo-1-methyl-N-(9-methyl-9-azabicyclo[3.3.1]non-3-yl)-1H-indazole-3-carboxamide substituted by tritium (hereinafter to be referred to as [3H]Granisetron). Specifically, crude synapse membrane sample was prepared from rat cerebral cortex, suspended in 50 mM HEPES buffer (pH 7.4) and used for testing. The test compound having several different concentrations and [3H]Granisetron (final concentration 1.0 nM) were added to this suspension and allowed to react at 25°C. Thirty minutes later, the reaction mixture was filtered by suction with cell harvester. The filter was washed with 50 mM Tris buffer (pH 7.4), and the radioactivity on the filter was counted using liquid scintillation counter or β-plate. The non-specific binding was determined in the presence of 1 µM Tropisetron. The concentration of the test compound necessary for 50% inhibition (IC50) and Ki value were determined from graph.

[1] = target: isolated guinea pig ascending colon (Cavia porcellus, UniProt O70528); assay: contraction of isolated guinea pig ascending colon; assay type: cell-based; conditions: male Hartley guinea pig ascending colon, Tyrode solution 37°C, relative to methacholine (30 µM) contraction; read-out: Contraction of removed colon (EC50)
Protocol: Experimental Example 3 : contraction of isolated guinea pig ascending colon
About 3 cm long ascending colon segment was taken from male Hartley guinea pig and suspended in 10 ml of a Tyrode solution ventilated with a mixed gas of oxygen (95%) and CO2 (5%) at 37°C with the load of 2 g. The contraction was isotonically measured via isotonic transducer. After an equilibrium period of about 30 min, the test compound was administered non-cumulatively from lower concentrations, and dose-dependent contraction was measured. The test compound was administered at 15 minutes intervals. Then, contraction by the test compound in the presence of a 5-HT4 receptor antagonist, 4-amino-3-chloro-6-methoxybenzoic acid · 2-diethylaminoethyl ester (0.3 µM, hereinafter to be referred to as SDZ 205-557) was determined, and antagonistic effect on the reaction by SDZ 205-557 was confirmed.
The contraction by the test compound was evaluated based on the ratio of reaction relative to mean contraction induced by methacholine (30 µM) administered before and after each determination of dose-dependent contraction. The contraction was probit-converted using the maximum value of dose-response curve as 100, and expressed by EC50 as determined from linear regression and maximum reaction ratio.

Sequence of isolated guinea pig ascending colon (O70528 whole entry): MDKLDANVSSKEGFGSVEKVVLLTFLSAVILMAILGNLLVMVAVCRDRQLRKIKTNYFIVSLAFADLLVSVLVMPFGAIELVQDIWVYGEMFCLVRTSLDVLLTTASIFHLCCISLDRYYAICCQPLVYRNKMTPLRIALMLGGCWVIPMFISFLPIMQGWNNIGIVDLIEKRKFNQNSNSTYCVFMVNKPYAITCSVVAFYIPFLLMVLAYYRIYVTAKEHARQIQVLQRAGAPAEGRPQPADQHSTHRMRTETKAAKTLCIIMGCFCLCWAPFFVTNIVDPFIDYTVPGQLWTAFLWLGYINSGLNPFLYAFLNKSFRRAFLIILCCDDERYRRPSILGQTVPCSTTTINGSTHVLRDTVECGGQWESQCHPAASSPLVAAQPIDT
T1 sequence (O70528 whole entry): as above

Ki (5-HT4 receptor) [nM]	IC50 (5-HT3 receptor) [nM]	EC50 [1] [nM]	SMILES
1.4	> 1000	4.6	COc1cc(N)c(Cl)cc1C(=O)NCC1CCN(CCCCNC(=O)c2ccc3ccccc3c2)CC1 [Example 25, 4-amino-5-chloro-2-methoxy-N-(1-(4-(2-naphthoylamino)butyl)piperidin-4-ylmethyl) benzamide]
0.65	> 1000	1	COc1cc(N)c(Cl)cc1C(=O)NC[C@H]1CCN(CCCCCNC(=O)Nc2ccccc2)C1 [Example 56, 4-amino-5-chloro-2-methoxy-N-((3R)-1-(5-(3-phenylureido)pentyl)pyrrolidin-3-ylmethyl)benzamide]
7.4	> 1000	6.7	COc1cc(N)c(Cl)cc1C(=O)NCC1CCN(CCCCCN2C(=O)c3ccccc3C2=O)C1 (stereo not drawn) [Example 70, 4-amino-5-chloro-N-(1-(5-(2,3-dihydro-1,3-dioxo-1H-isoindol-2-yl)pentyl)pyrrolidin-3-ylmethyl)-2-methoxybenzamide]
0.81	> 1000	1.6	COc1cc(N)c(Cl)cc1C(=O)NCC1CCN(CCCCCNC(=O)c2cccc(Cl)c2)CC1 [Example 30, 4-amino-5-chloro-N-(1-(5-(3-chlorobenzoylamino)pentyl)piperidin-4-ylmethyl)-2-methoxybenzamide]
0.43	> 1000	0.9	COc1cc(N)c(Cl)cc1C(=O)NCC1CCN(CCCCCNC(=O)c2cn(C)c3ccccc23)CC1 [Example 90, N-(5-(4-(4-amino-5-chloro-2-methoxybenzoylaminomethyl)piperidin-1-yl)pentyl)-1-methyl-1H-indole-3-carboxamide]
